Experimental data: patent publication US20100267743A1, “3-(PHENOXYPYRROLIDIN-3-YL-METHYL)HETEROARYL, 3-(PHENYLPYRROLIDIN-3-YLMETHOXY)HETEROARYL, AND 3-(HETEROARYLPYRROLIDIN-3-YLMETHOXY)HETEROARYL COMPOUNDS” (priority 2009, published 2010)
Marks after values point to notes of the source that are not given here.

How the values were obtained:
[1] = target: T1, SERT (Homo sapiens, UniProt P31645); conditions: cited from earlier work
Target sequence in this assay (P31645 whole entry, species assumed): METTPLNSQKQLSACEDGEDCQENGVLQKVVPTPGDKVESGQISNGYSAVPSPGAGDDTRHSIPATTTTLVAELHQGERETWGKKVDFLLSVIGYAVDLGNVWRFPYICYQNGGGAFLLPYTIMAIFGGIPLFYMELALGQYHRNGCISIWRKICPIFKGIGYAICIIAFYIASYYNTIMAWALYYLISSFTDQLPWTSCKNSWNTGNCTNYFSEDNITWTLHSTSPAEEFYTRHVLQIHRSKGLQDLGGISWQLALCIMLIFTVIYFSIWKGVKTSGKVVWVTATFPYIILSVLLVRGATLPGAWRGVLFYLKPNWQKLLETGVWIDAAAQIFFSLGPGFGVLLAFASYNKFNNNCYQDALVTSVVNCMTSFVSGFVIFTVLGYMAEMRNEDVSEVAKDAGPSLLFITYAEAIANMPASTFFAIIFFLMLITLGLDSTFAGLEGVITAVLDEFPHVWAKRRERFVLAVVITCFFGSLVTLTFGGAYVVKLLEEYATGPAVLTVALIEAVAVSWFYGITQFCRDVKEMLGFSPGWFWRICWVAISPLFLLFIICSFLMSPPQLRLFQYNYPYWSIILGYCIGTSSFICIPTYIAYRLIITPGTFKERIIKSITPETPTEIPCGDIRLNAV

[2] = target: T2, NET (Homo sapiens, UniProt P23975); experiment: hNET radioligand binding assay (3H-nisoxetine); set-up: expressed in transfected cells; host or cells: HEK-293; conditions: hNET membranes (HEK-293), 1.0 nM 3H-nisoxetine; for Ki: read-out: NET pKi (converted)
Method in brief: (§1)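 Membranes came from HEK-293 cells stably expressing hSERT (0.5 μg protein) or hNET (1 μg), with 3H-citalopram or 3H-nisoxetine respectively. Incubation was 60 min at 22° C in Tris buffer with 120 mM NaCl and 5 mM KCl, pH 7.4, followed by filtration and scintillation counting. pKi was derived by Cheng-Prusoff from IC50 and saturation-derived Kd.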

[3] = target: T1, SERT; experiment: hSERT radioligand binding assay (3H-citalopram); set-up: expressed in transfected cells; host or cells: HEK-293; conditions: hSERT membranes (HEK-293), 1.0 nM 3H-citalopram; for Ki: read-out: SERT pKi (converted)
Method in brief: as §1
Target sequence in this assay (P31645 whole entry): as the sequence (P31645 whole entry, species assumed) above

[4] = target: T2, NET; conditions: cited from earlier work

T2 sequence (P23975 whole entry): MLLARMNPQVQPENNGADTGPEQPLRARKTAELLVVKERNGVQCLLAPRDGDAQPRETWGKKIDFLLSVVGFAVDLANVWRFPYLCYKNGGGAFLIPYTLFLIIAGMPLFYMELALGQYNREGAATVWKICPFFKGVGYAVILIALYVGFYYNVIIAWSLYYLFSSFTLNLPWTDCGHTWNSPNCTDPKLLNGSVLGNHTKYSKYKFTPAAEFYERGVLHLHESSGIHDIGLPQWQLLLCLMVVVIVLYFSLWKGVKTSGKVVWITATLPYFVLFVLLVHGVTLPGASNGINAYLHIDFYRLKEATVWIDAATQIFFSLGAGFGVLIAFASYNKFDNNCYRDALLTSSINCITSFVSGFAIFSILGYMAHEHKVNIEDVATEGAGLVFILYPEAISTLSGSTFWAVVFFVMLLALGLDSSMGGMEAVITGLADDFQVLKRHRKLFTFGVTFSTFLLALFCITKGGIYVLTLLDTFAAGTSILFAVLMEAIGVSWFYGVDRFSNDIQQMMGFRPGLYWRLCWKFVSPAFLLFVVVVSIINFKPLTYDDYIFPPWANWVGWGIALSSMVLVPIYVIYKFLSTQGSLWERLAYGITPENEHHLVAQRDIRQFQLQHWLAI

Row | Ki [2] [nM] | Ki [3] [nM] | Structure (SMILES) | NET pKi [2] | SERT pKi [3] | also measured
1 | – | – | CCN(CC)C(=O)C1(c2ccccc2)CC1CN (centres unmarked) [milnacipran] | – | – | selectivity (measured as pKi) for SERT over NET [1]: 2.5 fold
2 | ≤ 100 | ≤ 100 | Fc1cc(F)c(O[C@H](c2ccncc2)[C@H]2CCNC2)c(F)c1 [Example 3-2, 4-[(S)-(S)-Pyrrolidin-3-yl-(2,4,6-trifluorophenoxy)methyl]pyridine] | – | – | –
3 | ≤ 100 | ≤ 100 | Fc1ccc(O[C@@H](c2ccccc2)C2CCNC2)c2ccccc12 (some centres unmarked) [21-9] | – | – | –
4 | – | – | Fc1cc(F)c(O[C@@H](c2ccccc2)[C@H]2CCNC2)nc1F.O=C(O)C(F)(F)F [14-1] | ≧5.0 | ≧7.0 | –
5 | – | – | Cc1cc(Cl)c(O[C@H](c2cncc(Cl)c2)[C@@H]2CCNC2)c(Cl)c1 [Example 2-28, 3-Chloro-5-[(R)-(2,6-dichloro-4-methylphenoxy)-(S)-pyrrolidin-3-yl-methy1]-pyridine] | ≧7.0 | ≧7.0 | –
6 | ≤ 10000 | ≤ 100 | Cc1cc(Cl)cc(Cl)c1OC(c1cncc(Cl)c1)C1CCNC1 [Example 2-30, 3-Chloro-5-[(R)-(2,4-dichloro-6-methylphenoxy)-(S)-pyrrolidin-3-yl-methy1]-pyridine] | – | – | –
7 | – | – | Cc1cccc(O[C@@H](c2ccccc2)[C@H]2CCNC2)n1.O=C(O)C(F)(F)F [14-11] | ≧5.0 | ≧5.0 | –
8 | – | – | CC(C)c1ccccc1O[C@@H](c1ncco1)[C@H]1CCNC1.O=C(O)C(F)(F)F [6-32] | ≧7.0 | ≧5.0 | –
9 | ≤ 10000 | ≤ 10000 | Fc1cc(F)c(Cl)c(O[C@H](c2cnccn2)[C@H]2CCNC2)c1Cl [10-2] | – | – | –
10 | ≤ 100 | ≤ 100 | Clc1ccc(Cl)c(O[C@@H](c2cccnc2)[C@H]2CCNC2)c1Cl [Example 2-67, 3-[(R)-(S)-Pyrrolidin-3-yl-(2,3,6-trichlorophenoxy)methyl]pyridine] | – | – | –
11 | ≤ 100 | ≤ 100 | Fc1cc(F)c(O[C@H](c2cccnc2)[C@H]2CCNC2)c(F)c1 [Example 2-69, 3-[(S)-(S)-Pyrrolidin-3-yl-(2,4,6-trifluorophenoxy)methyl]pyridine] | – | – | –
12 | ≤ 100 | ≤ 100 | Clc1cc(Cl)c(O[C@@H](c2ncco2)[C@H]2CCNC2)cc1Cl [6-1] | – | – | –
13 | ≤ 100 | ≤ 100 | Clc1cc(Cl)cc(O[C@H](c2cncc(Cl)c2)[C@H]2CCNC2)c1 [Example 2-16, 3-Chloro-5-[(S)-(3,5-dichlorophenoxy)-(S)-pyrrolidin-3-yl-methyl]pyridine] | – | – | –
14 | – | ≤ 100 | Fc1cc(Cl)c(OC(c2nccs2)C2CCNC2)c(Cl)c1 [Example 5-11, 2-[((S)-(2,6-Dichloro-4-fluorophenoxy)-((S)-pyrrolidin-3-yl-methyl]thiazole] | ≧5.0 | – | –
15 | – | – | Cc1ccnc(OC(c2ccccc2)C2CCNC2)c1 (centres unmarked) [14-32] | ≧7.0 | ≧7.0 | –
16 | – | – | Fc1cc(Cl)cc(F)c1OC(c1ncco1)C1CCNC1 (centres unmarked) [6-13] | ≧7.0 | ≧7.0 | –
17 | ≤ 100 | ≤ 100 | COc1cccc(C(Oc2cccc3ccccc23)C2CCNC2)c1 (centres unmarked) [21-6] | – | – | –
18 | – | – | Cc1cccnc1OC(c1ccccc1)C1CCNC1 (centres unmarked) [14-37] | ≧5.0 | ≧5.0 | –
19 | ≤ 100 | ≤ 100 | Clc1ncccc1O[C@@H](c1ccccc1)C1CCNC1 (some centres unmarked) [15-4] | – | – | –
20 | – | – | O=C(O)C(F)(F)F.c1ccc(-c2ccccc2O[C@@H](c2ncco2)[C@H]2CCNC2)cc1 [6-42] | ≧7.0 | ≧5.0 | –
21 | ≤ 100 | ≤ 100 | Cc1ccccc1C(Oc1cccc2ccccc12)C1CCNC1 (centres unmarked) [21-3] | – | – | –

Row | Ki [2] [nM] | Ki [3] [nM] | Structure (SMILES) | NET pKi [2] | SERT pKi [3] | also measured
22 | – | – | Fc1cnc(O[C@H](c2ccccc2)[C@@H]2CCNC2)c(F)c1.O=C(O)C(F)(F)F [14-16] | ≧7.0 | ≧7.0 | –
23 | ≤ 10000 | ≤ 100 | Fc1ccc(O[C@@H](c2ccccc2)C2CCNC2)cn1 (some centres unmarked) [15-25] | – | – | –
24 | ≤ 100 | ≤ 100 | Cc1ccc(O[C@@H](c2ncco2)[C@H]2CCNC2)cc1 [6-48] | – | – | –
25 | – | – | Brc1cnc(O[C@@H](c2ccccc2)[C@H]2CCNC2)c(Br)c1.O=C(O)C(F)(F)F [14-13] | ≧7.0 | ≧7.0 | –
26 | ≤ 100 | ≤ 10000 | COc1ccccc1OC(c1cccnc1)[C@H]1CCNC1 (stereo partly drawn) [Example 2-81, 3-[(S)-(2-Methoxyphenoxy)-pyrrolidin-3-yl-methyl]pyridine] | – | – | –
27 | ≤ 100 | ≤ 100 | Clc1cccc(Cl)c1O[C@H](c1cccnc1)[C@H]1CCNC1 [Example 2-73, 3-[(S)-(2,6-Dichlorophenoxy)-(S)-pyrrolidin-3-yl-methyl]pyridine] | – | – | –
28 | – | – | CC(=O)c1c(O[C@@H](c2ncco2)[C@H]2CCNC2)ccc(Cl)c1Cl.O=C(O)C(F)(F)F [6-27] | ~5.0* | ≧7.0 | –
29 | – | – | Cc1ccc(C23CNCC2C3)cc1 (centres unmarked) [bicifadine] | – | – | pKi at NET [4]: 6.7; pKi at SERT [1]: 7.0
30 | ≤ 10000 | ≤ 100 | Clc1cncc(C(Oc2cc(Cl)c(Cl)cc2Cl)C2CCNC2)c1 [Example 2-1, 3-Chloro-5-[(R)-(S)-pyrrolidin-3-y1-(2,4,5-trichlorophenoxy)methyl]pyridine] | – | – | –
31 | ≤ 100 | ≤ 100 | Fc1cccc(C(Oc2cccc3ccccc23)C2CCNC2)c1 (centres unmarked) [21-4] | – | – | –
32 | ≤ 10000 | ≤ 100 | Cc1cc(Cl)ccc1O[C@H](c1cncc(F)c1)[C@H]1CCNC1 [Example 2-61, 3-[(S)-(4-Chloro-2-methylphenoxy)-(S)-pyrrolidin-3-yl-methyl]-5-fluoropyridine] | – | – | –
33 | – | – | Clc1cccc(O[C@@H](c2ncco2)[C@H]2CCNC2)c1.O=C(O)C(F)(F)F [6-45] | ≧7.0 | ≧5.0 | –
34 | – | – | Fc1cnc(O[C@@H](c2ccccc2)[C@H]2CCNC2)c(F)c1.O=C(O)C(F)(F)F [14-17] | ≧7.0 | ≧5.0 | –
35 | – | – | Fc1ccc(O[C@H](c2ccccc2)[C@@H]2CCNC2)cn1.O=C(O)C(F)(F)F [15-26] | ≧5.0 | ≧7.0 | –
36 | – | – | FC(F)(F)c1ccc(O[C@H](c2ccccc2)[C@@H]2CCNC2)nc1.O=C(O)C(F)(F)F [14-24] | ≧5.0 | ≧7.0 | –
37 | – | – | Fc1cc(F)c(Cl)c(O[C@@H](c2nccs2)[C@H]2CCNC2)c1Cl [Example 5-8] | ≧5.0 | ≧5.0 | –
38 | ≤ 100 | ≤ 10000 | FC(F)(F)c1ccccc1O[C@@H](c1ncco1)[C@H]1CCNC1 [6-17] | – | – | –
39 | – | – | Fc1cncc([C@H](Oc2cccc3ccccc23)[C@H]2CCNC2)c1.O=C(O)C(F)(F)F [19-2] | ≧7.0 | ≧7.0 | –
40 | – | – | Fc1ccc(O[C@@H](c2nccs2)[C@H]2CCNC2)cc1Cl [Example 5-30] | ≧5.0 | ≧7.0 | –
41 | – | – | Fc1ccc(O[C@@H](c2ccccc2)[C@H]2CCNC2)cn1.O=C(O)C(F)(F)F [15-27] | ≧5.0 | ≧7.0 | –
42 | ≤ 100 | ≤ 10000 | c1ccc(C(Oc2ccccn2)C2CCNC2)cc1 (centres unmarked) [14-40] | – | – | –
